Measured values published in PubChem BioAssay AID179 (DTP/NCI, 2004).
Activity calls are given as the source filed them.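 The calls were made as follows: active = compounds giving half or more protection of infected cells from virus-caused growth loss, again on retest; inactive = the rest.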

System: CEM cells HIV-1 protection, formazan growth assay
Assay: NCI AIDS Antiviral Assay
Settings: for IC50: measured here: growth of uninfected CEM cells
Outline: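 Soluble formazan readout of cell growth; CEM cells ± HIV-1; 5 drug concs. ≥50% protection → retest; ≥50% again = moderately active; reproducible 100% = confirmed active.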

SMILES | EC50 | IC50 | outcome
COC(=O)[C@H]1[C@H](OC(=O)[C@@H](OC)c2ccccc2)ON2CC[C@@H](OC(=O)c3ccccc3)[C@H]12 | > 200 µM | 178 µM | –
Cn1cnc([N+](=O)[O-])c1Sc1nnc(-c2cccnc2)n1C | > 794 µM | 6.61 µM | –
C#CCOC(=O)c1ccccc1OC(C)=O.[C-]#[O+].[C-]#[O+].[C-]#[O+].[C-]#[O+].[C-]#[O+].[C-]#[O+].[Co].[Co] | > 200 µM | 9.33 µM | –
COC(=O)c1ccccc1CC1Cc2ccc3c(c2C1=O)CCC3 (stereo not given) | > 200 µM | > 200 µM | –
[N-]=[N+]=Nc1ccc2c(c1)Sc1ccccc1N2CCCCN1CCN(Cc2ccc(C(=O)c3ccc(CSCC(N)C(=O)O)cc3)cc2)CC1 (stereo not given) | > 200 µM | 32.4 µM | –
COC(=O)C1(C(=O)OC)Cc2ccc(C)cc2C2=C1C(=O)c1ccccc1C2=O | > 200 µM | 5.13 µM | –
COCCOCCOCCOc1ccc(C(C#N)N(CCc2ccccc2)C(=O)c2cc(C(=O)N(CCc3ccccc3)C(C#N)c3ccc(OCCOCCOCCOC)cc3)cc(C(=O)N(CCc3ccccc3)C(C#N)c3ccc(OCCOCCOCCOC)cc3)c2)cc1 (stereo not given) | > 200 µM | > 200 µM | –
N=c1oc2ccc(Cl)cc2cc1C(=O)Nc1ccccc1 | > 151 µM | 21.9 µM | –
O=C(CC/C(CC(=O)c1ccc(Cl)cc1)=N/O)Nc1ccc(Cl)c(Cl)c1 | > 437 µM | > 437 µM | –
O=c1c(C=Nc2ccccc2Cl)c(O)n(-c2ccccc2)c(=O)n1-c1ccccc1 | – | – | inactive
CCCCCCCCCCCOCCC1C(C(C)OCCN2CCCC2)OC2OC(C)(C)OC21 (stereo not given) | > 200 µM | 9.12 µM | –
COC(=O)C1C=CCC2CCCCC21N1CCCC1 (stereo not given) | – | – | inactive
CCCCCCCCCCCCCCCC=C(c1cc(Br)cc(C(=O)OC)c1OC)c1cc(Br)cc(C(=O)OC)c1OC | > 25.7 µM | > 25.7 µM | –
COC(=O)C1=C(C(=O)Nc2cccnc2Cl)N(c2ccc(OC)cc2[N+](=O)[O-])C(c2ccc(C)cc2)=CC1c1ccc(OC)cc1OC (stereo not given) | > 100 µM | 1.95 µM | –
[O]=[Sb][c]1ccc(C(=O)O)cc1 | > 200 µM | 26.3 µM | –
CC(=O)NCCSSCCCCS(=O)O | > 200 µM | 3.16 µM | –
O=C1NC(=S)N/C1=C\c1ccco1 | > 200 µM | 105 µM | –
CCSC1=[N+](SCC)CCCS1 | > 708 µM | 269 µM | –

SMILES | EC50 | IC50 | outcome
Oc1ccc([C@H]2Oc3c(ccc(O)c3O)[C@@H](O)[C@H]2O)cc1O | > 200 µM | 29.5 µM | –
CC(C)CC1=C(C(=O)c2ccoc2)CC(C)C1 (stereo not given) | > 200 µM | > 200 µM | –
O=C1CSC(c2ccccc2O)N1c1ccc(-n2c(-c3ccccc3)nc3ccccc3c2=O)cc1 (stereo not given) | > 200 µM | 11.2 µM | –
COC(=O)[C@H](C)NC(=O)[C@H](NS(=O)(=O)c1nc2ccccc2s1)c1ccccc1 | > 200 µM | 37.2 µM | –
COc1ccc2c(c1)CCC1OC(c3cccnc3)OC21 (stereo not given) | > 200 µM | 30.2 µM | –
Cc1ccc2c(c1C)C(=O)C1(Cc3cc4c(cc3C1=O)CCC4)C2 (stereo not given) | > 100 µM | > 100 µM | –
COC(OC(CO)C(O)S(=O)(=O)O)C(O)S(=O)(=O)O (stereo not given) | > 200 µM | 32.4 µM | –
OC1C2CCC1C1C3C=CC(C3)C21 (stereo not given) | – | – | inactive
NCCSSc1ccc([N+](=O)[O-])cc1 | – | – | inactive
O=[N+]([O-])c1ccc(Cl)cc1C1SCc2nc3ccccc3n21 (stereo not given) | – | – | inactive
Cc1ccc2c(c1)C/C(=C\c1ccccc1C(=O)O)C2=O | > 200 µM | 102 µM | –
CCOC(=O)C1=Nc2ccccc2N=C(C2C(=O)C=C(C)OC2=O)C1 (stereo not given) | > 200 µM | > 200 µM | –
COC(=O)CCCN(C)c1n[nH]c(N)n1 | > 200 µM | > 200 µM | –
CC[P+](C)(Cc1ccccc1)c1ccccc1 (stereo not given) | 0.0631 µM | 81.3 µM | –
CCOC(=O)/C(=C/c1ccccc1)C(=O)c1ccccc1 | > 25.7 µM | 20 µM | –
NNc1n[nH]c(=S)n1N | > 200 µM | > 200 µM | –
C1CSCCCSCCCSCCCSC1 | > 33.9 µM | > 33.9 µM | –
